# Reference: patent US6750208B1, “Medicine for treating apoptosis dysfunction containing oligosaccharides” (Laboratoires Goemar S.A., priority 1998, dated 2004)
# System: cells as in Example 1, FasAb-induced apoptosis
# Assay: effect of I9 fractions on low dose FasAb-induced apoptosis (Example 3)
# Assay type: cell-based
# Details: 0.2 mg/ml simultaneously with 100 ng/ml FasAb of Euromedex origin; 24 hours of incubation
# Protocol: The effect induced by various constituents of this mixture, in particular of fractions DP 2, DP 3, DP 4, DP 5 and DP 7, was tested.
# The polymer constituting the raw material of I9 was also tested, as was the product named KIK (hexasaccharide of type kappa-iota-kappa).
# For these experiments, the procedure was carried out as in Example 1, simultaneously introducing, on the one hand, 0.2 mg/ml of each of the abovementioned fractions of I9 and, on the other hand, 100 ng/ml of FasAb of Euromedex origin.
# After 24 hours of incubation, the findings summarized below were made.
row,Substance,stimulatory effect on FasAb-induced apoptosis
1,iota-neocarrahexaose [DP 3],inactive
2,iota-neocarraletraose [DP 2],inactive
3,oligo-iota-carrageenan [DP 7],50%
4,iota-neocarraoctaose [DP 4],inactive
5,iota-neocarradecaose [DP 5],inactive
6,iota-carrageenan,active
